The subject of one experiment is BxPC-3 cells. In words: Xenograft mouse model, human pancreatic adenocarcinoma. It counts as in vivo, mice. The protocol:
Several xenograft mouse models were prepared: • 1) imatinib-resistant leukemia by subcutaneously implanting Ba/F3 T315I cells (1×10^8 cell/mL in sterile PBS), into the right flank of athymic nude male mice (HSD, 6-7 weeks old). When the tumor volume reached approximately 50 mm^3, mice were assigned randomly to either vehicle alone or OR0512 treatment groups (five mice per group). Mice were treated with either vehicle (DMSO) or OR0512 (40 mg/kg q.d.; per os for 11 consecutive days). • 2) human pancreatic adenocarcinoma model by subcutaneously implanting BxPC-3 cells (1×10^7 cell/mL in sterile PBS), into the right flank of athymic nude male mice (HSD, 6-7 weeks old). […]
Tumor volumes in mm^3 were determined three times a week with a digital caliper and calculated using the following formula: Tumor Volume (mm^3)=length (mm)×width (mm)×width (mm)×½. Body weight was measured three times a week, and mice were observed daily for monitoring signs of stress to detect possible toxicities. […] Data were analyzed with Prism 5.0b (GraphPad Software) by one-way ANOVA with Bonferroni post hoc. Tumor Growth Inibition (TGI) is calculated as the percent decrease of tumor growth at the end of the study in the OR0512 treatment group in comparison to the vehicle alone treatment group.
Background: Xenograft models place foreign cells or tissue in a host animal.

Another experiment deals with T1, ABL T315I (Homo sapiens, UniProt P00519, T315I).
T1 construct: purchased Invitrogen
In words: In vitro kinase assay (Z′-LYTE). As to conditions: read-out: % of inhibition of the kinase compared to the control. It counts as biochemical. An outline of the steps:
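Inhibition measured at a single dose, 100 nM, or 10 μM for ABL T315I. Z′-LYTE format with ATP at apparent Km; emission ratio of donor to acceptor quantifies phosphorylation.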

The next experiment concerns the target T2, EPHB4 (Homo sapiens, UniProt P54760).
T2 construct: purchased Invitrogen
Description: In vitro kinase assay (Z′-LYTE). The conditions noted are these: read-out: percent inhibition of the kinase compared to the control. It counts as biochemical. An outline of the steps: (§1)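 Percent inhibition is derived from a coupled-enzyme fluorescence format in which unphosphorylated FRET peptide is preferentially proteolysed. Compounds are screened once at 100 nM (10 μM against ABL T315I) in 1% DMSO, with ATP at its apparent Km.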

The next experiment has as its target T3, EPHA4 (Homo sapiens, UniProt P54764).
T3 construct: purchased Invitrogen
Description: In vitro kinase assay (Z′-LYTE). As to conditions: read-out: percent inhibition of the kinase compared to the control. It counts as biochemical. The essentials: as §1

The next experiment concerns the target T4, BLK (Homo sapiens, UniProt P51451).
T4 construct: purchased Invitrogen
In words: In vitro kinase assay (Z′-LYTE). The class given is biochemical. The conditions noted are these: read-out: percent inhibition of the kinase compared to the control. The essentials:
as §1

The next experiment deals with T5, YES (Homo sapiens, UniProt P07947).
T5 construct: purchased Invitrogen
In words: In vitro kinase assay (Z′-LYTE). The class given is biochemical. The conditions noted are these: read-out: percent inhibition of the kinase compared to the control. The essentials:
as §1

In a further experiment the target is T6, LCK (Homo sapiens, UniProt P06239).
T6 construct: purchased Invitrogen
Description: In vitro kinase assay (Z′-LYTE). It counts as biochemical. The conditions noted are these: read-out: percent inhibition of the kinase compared to the control. The essentials: as §1

Another experiment concerns the target T7, FLT3 (Homo sapiens, UniProt P36888).
T7 construct: purchased Invitrogen
In words: In vitro kinase assay (Z′-LYTE). It counts as biochemical. As to conditions: read-out: percent inhibition of the kinase compared to the control. An outline of the steps:
as §1

A further experiment addresses T8, EPHA1 (Homo sapiens, UniProt P21709).
T8 construct: purchased Invitrogen
Description: In vitro kinase assay (Z′-LYTE). It counts as biochemical. The conditions noted are these: read-out: percent inhibition of the kinase compared to the control. The essentials: as §1

For another experiment, the target named is T9, FGFR2 (Homo sapiens, UniProt P21802).
T9 construct: purchased Invitrogen
T9 sequence (P21802 22-821): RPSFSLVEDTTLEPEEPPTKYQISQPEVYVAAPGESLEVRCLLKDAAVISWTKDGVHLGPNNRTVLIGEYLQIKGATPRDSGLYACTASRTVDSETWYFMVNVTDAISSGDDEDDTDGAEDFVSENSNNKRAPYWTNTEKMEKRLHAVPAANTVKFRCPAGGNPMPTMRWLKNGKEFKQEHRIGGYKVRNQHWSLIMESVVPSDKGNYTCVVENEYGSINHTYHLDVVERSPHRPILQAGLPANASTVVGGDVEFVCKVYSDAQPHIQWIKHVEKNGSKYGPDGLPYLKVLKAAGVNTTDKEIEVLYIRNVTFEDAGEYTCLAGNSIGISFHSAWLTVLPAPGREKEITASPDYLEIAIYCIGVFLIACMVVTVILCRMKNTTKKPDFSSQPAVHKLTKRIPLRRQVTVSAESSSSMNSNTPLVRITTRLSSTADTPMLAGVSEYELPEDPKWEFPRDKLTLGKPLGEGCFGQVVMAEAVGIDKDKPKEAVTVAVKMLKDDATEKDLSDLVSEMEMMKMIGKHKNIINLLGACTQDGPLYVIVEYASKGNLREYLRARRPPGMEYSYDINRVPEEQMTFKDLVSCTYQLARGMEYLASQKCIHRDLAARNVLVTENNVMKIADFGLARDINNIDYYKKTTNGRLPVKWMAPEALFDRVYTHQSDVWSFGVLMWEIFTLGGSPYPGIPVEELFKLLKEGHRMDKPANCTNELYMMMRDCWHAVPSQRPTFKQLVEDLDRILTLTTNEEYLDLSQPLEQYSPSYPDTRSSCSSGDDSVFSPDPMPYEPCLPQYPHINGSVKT
Description: In vitro kinase assay (Z′-LYTE). The class given is biochemical. The conditions noted are these: read-out: % of inhibition of the kinase compared to the control. The essentials:
as §1

A further experiment addresses T10, PDGFRA (PDGFR alpha) (Homo sapiens, UniProt P16234).
T10 construct: purchased Invitrogen
Description: In vitro kinase assay (Z′-LYTE). It counts as biochemical. The conditions noted are these: read-out: % of inhibition of the kinase compared to the control. The essentials:
as §1

Another experiment has as its target T11, FGR (Homo sapiens, UniProt P09769).
T11 construct: purchased Invitrogen
Description: In vitro kinase assay (Z′-LYTE). It counts as biochemical. The conditions noted are these: read-out: percent inhibition of the kinase compared to the control. The essentials:
as §1

The target of another experiment is T12, RET (Homo sapiens, UniProt P07949).
T12 construct: purchased Invitrogen
In words: In vitro kinase assay (Z′-LYTE). The class given is biochemical. As to conditions: read-out: percent inhibition of the kinase compared to the control. The essentials:
as §1

A further experiment deals with T13, ABL Y253F (Homo sapiens, UniProt P00519, Y253F).
T13 construct: purchased Invitrogen
In words: In vitro kinase assay (Z′-LYTE). As to conditions: read-out: percent inhibition of the kinase compared to the control. It counts as biochemical. The essentials: as §1

The next experiment deals with T14, BMX (Homo sapiens, UniProt P51813).
T14 construct: purchased Invitrogen
In words: In vitro kinase assay (Z′-LYTE). As to conditions: read-out: percent inhibition of the kinase compared to the control. It counts as biochemical. An outline of the steps: as §1

The target of the next experiment is T15, PDGFRB (Homo sapiens, UniProt P09619).
T15 construct: purchased Invitrogen
T15 sequence (P09619 33-1106): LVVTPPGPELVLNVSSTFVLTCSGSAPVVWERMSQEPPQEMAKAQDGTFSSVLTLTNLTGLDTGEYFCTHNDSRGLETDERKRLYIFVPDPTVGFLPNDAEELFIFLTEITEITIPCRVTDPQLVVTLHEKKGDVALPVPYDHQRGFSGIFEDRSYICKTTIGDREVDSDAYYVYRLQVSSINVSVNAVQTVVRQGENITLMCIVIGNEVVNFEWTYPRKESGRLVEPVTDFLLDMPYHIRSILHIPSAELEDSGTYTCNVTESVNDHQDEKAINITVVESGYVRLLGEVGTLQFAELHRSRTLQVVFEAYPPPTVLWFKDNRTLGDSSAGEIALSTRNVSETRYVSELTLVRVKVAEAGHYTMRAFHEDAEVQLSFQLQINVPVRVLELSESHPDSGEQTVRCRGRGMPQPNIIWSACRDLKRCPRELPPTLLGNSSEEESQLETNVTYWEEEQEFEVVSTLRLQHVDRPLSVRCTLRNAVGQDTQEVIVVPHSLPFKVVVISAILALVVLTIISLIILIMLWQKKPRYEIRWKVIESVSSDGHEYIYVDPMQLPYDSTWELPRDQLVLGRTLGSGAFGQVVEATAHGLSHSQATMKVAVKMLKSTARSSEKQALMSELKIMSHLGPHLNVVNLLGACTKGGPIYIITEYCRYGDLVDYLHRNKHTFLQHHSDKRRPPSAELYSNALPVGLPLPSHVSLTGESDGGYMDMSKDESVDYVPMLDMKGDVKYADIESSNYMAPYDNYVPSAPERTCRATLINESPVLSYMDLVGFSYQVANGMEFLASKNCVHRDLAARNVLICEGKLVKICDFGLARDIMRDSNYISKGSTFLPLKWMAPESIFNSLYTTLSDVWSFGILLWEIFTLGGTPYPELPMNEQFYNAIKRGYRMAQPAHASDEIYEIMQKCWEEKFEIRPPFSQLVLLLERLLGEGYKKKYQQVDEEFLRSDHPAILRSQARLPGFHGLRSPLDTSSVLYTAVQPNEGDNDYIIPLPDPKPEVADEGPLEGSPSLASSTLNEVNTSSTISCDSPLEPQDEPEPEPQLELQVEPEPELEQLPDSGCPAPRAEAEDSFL
Description: In vitro kinase assay (Z′-LYTE). The class given is biochemical. The conditions noted are these: read-out: % of inhibition of the kinase compared to the control. An outline of the steps: as §1

The next experiment concerns the target T16, EGFR (ErbB1) (Homo sapiens, UniProt P00533).
T16 construct: purchased Invitrogen
In words: In vitro kinase assay (Z′-LYTE). The class given is biochemical. The conditions noted are these: read-out: % of inhibition of the kinase compared to the control. The essentials: as §1

Another experiment has as its target T17, FMS (Homo sapiens, UniProt P07333).
T17 construct: purchased Invitrogen
In words: In vitro kinase assay (Z′-LYTE). It counts as biochemical. The conditions noted are these: read-out: percent inhibition of the kinase compared to the control. An outline of the steps:
as §1

T2 sequence (P54760 16-987): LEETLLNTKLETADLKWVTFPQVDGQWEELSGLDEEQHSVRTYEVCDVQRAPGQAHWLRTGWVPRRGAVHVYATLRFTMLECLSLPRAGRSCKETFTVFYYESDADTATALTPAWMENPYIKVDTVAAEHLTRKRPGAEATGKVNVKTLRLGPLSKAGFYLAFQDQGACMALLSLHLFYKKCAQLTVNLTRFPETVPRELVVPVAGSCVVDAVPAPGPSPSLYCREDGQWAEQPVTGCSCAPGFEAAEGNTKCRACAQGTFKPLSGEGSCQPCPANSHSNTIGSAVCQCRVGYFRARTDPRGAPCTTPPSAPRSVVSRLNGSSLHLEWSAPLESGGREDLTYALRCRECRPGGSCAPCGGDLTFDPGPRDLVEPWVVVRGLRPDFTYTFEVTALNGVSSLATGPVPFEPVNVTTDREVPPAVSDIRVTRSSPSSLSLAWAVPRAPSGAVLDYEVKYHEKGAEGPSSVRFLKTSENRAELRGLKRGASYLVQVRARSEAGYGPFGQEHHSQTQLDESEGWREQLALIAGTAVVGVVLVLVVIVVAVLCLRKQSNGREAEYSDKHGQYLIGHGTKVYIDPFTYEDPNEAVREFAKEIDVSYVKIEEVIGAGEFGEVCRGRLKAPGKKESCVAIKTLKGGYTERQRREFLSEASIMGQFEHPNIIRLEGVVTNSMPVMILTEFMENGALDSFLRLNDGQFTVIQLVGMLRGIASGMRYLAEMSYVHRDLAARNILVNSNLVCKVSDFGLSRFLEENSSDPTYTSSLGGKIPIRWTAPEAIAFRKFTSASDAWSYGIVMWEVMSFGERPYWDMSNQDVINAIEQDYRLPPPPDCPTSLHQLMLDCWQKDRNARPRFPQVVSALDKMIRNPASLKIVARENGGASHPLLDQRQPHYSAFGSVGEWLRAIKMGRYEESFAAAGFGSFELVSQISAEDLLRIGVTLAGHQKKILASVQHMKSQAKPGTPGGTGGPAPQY
T4 sequence (P51451 whole entry): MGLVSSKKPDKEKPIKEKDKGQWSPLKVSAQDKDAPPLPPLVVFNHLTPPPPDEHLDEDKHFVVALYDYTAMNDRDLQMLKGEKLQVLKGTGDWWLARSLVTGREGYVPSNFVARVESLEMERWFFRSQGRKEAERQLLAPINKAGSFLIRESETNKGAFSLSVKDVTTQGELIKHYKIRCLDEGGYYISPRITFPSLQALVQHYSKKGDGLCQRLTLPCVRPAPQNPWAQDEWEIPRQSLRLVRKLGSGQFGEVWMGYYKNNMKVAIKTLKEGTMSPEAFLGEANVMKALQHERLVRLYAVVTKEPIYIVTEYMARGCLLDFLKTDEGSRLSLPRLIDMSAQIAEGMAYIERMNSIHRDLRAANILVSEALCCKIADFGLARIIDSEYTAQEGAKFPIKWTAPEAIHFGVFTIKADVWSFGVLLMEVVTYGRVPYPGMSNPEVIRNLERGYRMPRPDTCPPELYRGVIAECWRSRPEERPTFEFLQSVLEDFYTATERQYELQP
T17 sequence (P07333 20-972): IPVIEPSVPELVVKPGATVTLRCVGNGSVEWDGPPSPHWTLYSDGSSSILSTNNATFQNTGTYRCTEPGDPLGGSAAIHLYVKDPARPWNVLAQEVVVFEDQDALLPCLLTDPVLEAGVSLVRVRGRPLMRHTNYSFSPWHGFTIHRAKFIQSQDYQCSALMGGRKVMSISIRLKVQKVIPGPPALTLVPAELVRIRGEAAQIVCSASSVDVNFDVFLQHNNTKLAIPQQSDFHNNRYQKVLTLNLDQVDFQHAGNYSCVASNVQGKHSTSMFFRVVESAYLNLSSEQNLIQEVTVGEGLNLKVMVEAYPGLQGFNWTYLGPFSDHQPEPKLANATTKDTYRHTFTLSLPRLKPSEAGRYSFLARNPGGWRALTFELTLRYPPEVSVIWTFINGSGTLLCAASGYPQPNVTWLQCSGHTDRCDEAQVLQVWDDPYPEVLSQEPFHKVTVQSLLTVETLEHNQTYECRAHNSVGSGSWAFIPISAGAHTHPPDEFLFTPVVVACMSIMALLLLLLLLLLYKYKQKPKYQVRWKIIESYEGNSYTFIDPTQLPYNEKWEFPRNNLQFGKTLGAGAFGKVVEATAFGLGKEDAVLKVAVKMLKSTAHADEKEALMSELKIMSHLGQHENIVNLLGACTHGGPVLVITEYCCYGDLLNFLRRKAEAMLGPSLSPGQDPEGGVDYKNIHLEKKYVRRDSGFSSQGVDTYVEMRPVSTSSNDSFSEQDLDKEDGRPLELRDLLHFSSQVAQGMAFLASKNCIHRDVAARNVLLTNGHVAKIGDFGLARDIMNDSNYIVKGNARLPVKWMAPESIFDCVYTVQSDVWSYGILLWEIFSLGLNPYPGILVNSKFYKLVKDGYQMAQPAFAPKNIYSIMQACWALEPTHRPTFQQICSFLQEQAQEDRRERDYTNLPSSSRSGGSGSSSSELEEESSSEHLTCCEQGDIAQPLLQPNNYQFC
T11 sequence (P09769 whole entry): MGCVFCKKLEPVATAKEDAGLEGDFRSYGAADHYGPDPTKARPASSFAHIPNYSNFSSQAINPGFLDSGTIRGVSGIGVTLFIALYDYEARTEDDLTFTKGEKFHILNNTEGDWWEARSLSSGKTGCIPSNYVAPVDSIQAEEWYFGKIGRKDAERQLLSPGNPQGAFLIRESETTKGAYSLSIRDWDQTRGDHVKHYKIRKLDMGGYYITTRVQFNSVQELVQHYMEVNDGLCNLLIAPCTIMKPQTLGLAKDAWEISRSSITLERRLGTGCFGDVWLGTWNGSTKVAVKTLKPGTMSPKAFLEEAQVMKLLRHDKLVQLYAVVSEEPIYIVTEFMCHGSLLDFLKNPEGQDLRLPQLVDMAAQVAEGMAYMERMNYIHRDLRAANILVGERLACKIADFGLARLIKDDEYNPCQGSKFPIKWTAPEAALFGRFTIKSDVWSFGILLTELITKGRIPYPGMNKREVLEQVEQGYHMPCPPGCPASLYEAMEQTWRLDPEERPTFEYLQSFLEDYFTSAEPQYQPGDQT

Turning to `COC(=O)c1cc2cc(NCc3cc(NC(=O)c4ccc(CN5CCN(C)CC5)c(C(F)(F)F)c4)ccc3C)cnc2[nH]1` [OR0512], the “Tumor Growth Inhibition - TGI” value with BxPC-3 cells (BxPC-3 xenograft, mice, 20 mg/kg q.d. per os, 32 days, versus vehicle, **P < 0.05) turned out to be 85%**. In addition, the “decrease of tumor growth (in words)” value with BxPC-3 cells (xenografted mice, human pancreatic adenocarcinoma model) is “significantly induced a decrease of tumor growth”. Besides, the inhibition (as a rule, the change of the read-out against control, counted positive when it falls) at 10 µM at ABL T315I was at least 50%. For the same compound, the inhibition at 0.1 µM at EPHB4, at EPHA4, at BLK, at YES, on LCK and on FLT3 was above 50% each time. Also, the inhibition at 0.1 µM was above 50% on EPHA1; at least 50% at FGFR2; at least 50% on PDGFRA (PDGFR alpha); above 50% on FGR; above 50% at RET; above 50% on ABL Y253F. For the same compound, the inhibition at 0.1 µM on BMX is above 50%; on PDGFRB, at least 50%; at EGFR (ErbB1), at least 50%; on FMS, above 50%.

For the origin of these results see US9493455B2, “Azaindole derivatives as inhibitors of protein kinases” (ORIBASE PHARMA, priority 2012, dated 2016).
